Source: patent publication US7932261B2, “Macrocycle derivatives useful as inhibitors of β-secretase (BACE)” (Janssen Pharmaceutica NV, priority 2006, dated 2011)

Key:
[1] = target: T1, β-secretase (BACE) (Homo sapiens, UniProt P56817); assay: in vitro BACE FS1 % Inhibition Assay (Example 13); assay type: biochemical; details: FS1 substrate, pH 5; for inhibition at 0.3 µM: read-out: % Inhibition (Example 13) @ 0.3 μM, 0.3 μM compound; for inhibition at 1 µM: read-out: % Inhibition (Example 13) @ 1 μM, 1 μM compound; for inhibition at 3 µM: read-out: % Inhibition (Example 13) @ 3 μM, 3 μM compound
T1 construct: purchased Panvera
T1 sequence (P56817 46-501): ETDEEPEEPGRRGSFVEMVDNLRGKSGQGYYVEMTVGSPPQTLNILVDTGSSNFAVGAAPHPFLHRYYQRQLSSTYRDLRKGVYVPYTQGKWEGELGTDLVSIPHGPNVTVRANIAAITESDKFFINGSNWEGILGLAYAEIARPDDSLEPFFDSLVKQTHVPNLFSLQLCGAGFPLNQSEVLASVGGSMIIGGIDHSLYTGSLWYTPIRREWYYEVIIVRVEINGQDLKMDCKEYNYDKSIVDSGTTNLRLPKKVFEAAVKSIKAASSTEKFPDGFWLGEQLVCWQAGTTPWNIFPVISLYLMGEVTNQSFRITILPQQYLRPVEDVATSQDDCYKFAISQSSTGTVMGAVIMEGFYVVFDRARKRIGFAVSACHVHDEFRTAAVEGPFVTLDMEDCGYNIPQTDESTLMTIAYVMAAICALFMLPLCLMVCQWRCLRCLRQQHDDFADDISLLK
Experimental: (§1) The following assay buffers were prepared and used in this assay: (1) enzyme assay buffer (0.05 M sodium acetate, pH5, 0.1% PEG8000 (w/v)), (2) substrate assay buffer (0.05 M sodium acetate, pH5), and (3) compound vehicle (30% DMSO in 50 mM HEPES, pH 7.4).
(§2) The FS1-substrate stock solution was prepared in DMSO as a 10 mg/mL solution. The FS1-substrate working solution was prepared by diluting the 10 mg/mL stock solution with substrate assay buffer to a final concentration of 300 μg/mL. The α-secretase (BACE) working solution was prepared by diluting a 0.83 mg/mL BACE stock solution with enzyme assay buffer to a final concentration of 4 μg/mL.
Test compounds were dissolved in DMSO to 10 mM.
(§3) The screening procedure for this assay was as follows: 15 μL of BACE working solution was pipetted into each well of a 96-well plate. To each well was then pipetted 2 μL of test compound at the selected concentration. Test compound and BACE were then mixed with a pipettor and incubated for 20 min at room temperature. To each well was then added 10 µL of the FS1 substrate working solution. The plates were then incubated for 1 hour at room temperature.
The procedure for the blank (negative control) was as follows. 15 μL of assay buffer was pipetted into each well to be used as a blank control. To each well was then added 2 μL of vehicle and 10 μL of FS1-substrate working solution. The plates were then incubated for 1 hour at room temperature.
(§4) The procedure for the positive control was as follows: 15 μL of BACE working solution was pipetted into each well to be used as a positive control. To each well was then pipetted 2 μL of vehicle. Vehicle and BACE were then mixed with a pipettor and incubated for 20 min at room temperature. To each well was then added 10 μL of the FS1 substrate working solution. The plates were then incubated for 1 hour at room temperature.
For test compounds, % inhibition was determined at each concentration as follows: […]

[2] = target: T1, β-secretase (BACE); assay: in vitro BACE Assay, Ki (Example 14); assay type: biochemical
Experimental: as §1
as §2, with “β-secretase” for “α-secretase”
Test compounds were dissolved in DMSO at 10 mM.
as §3, with “The” for “The screening”, “μL” for “µL”, “solution.” for “solution. The plates were then incubated for 1 hour at room temperature.”
as §4, with “solution.” for “solution. The plates were then incubated for 1 hour at room temperature.”
For test compounds, Ki inhibition was determined as follows: For each compound concentration and positive control, rate of cleavage of substrate (Vi, where i=compound concentration in μM) was determined as Δ Fluorescence/Δ time (min). Cleavage rates (Vi) were plotted as a function of inhibitor concentration in μM [I]. The Ki was then determined by fitting the following equation to the graph of [I] vs. Vi Y=aVmax/(50+24*(1+X/Ki)),

Structure (SMILES)	inhibition at 0.3 µM [1] [%]	inhibition at 1 µM [1] [%]	inhibition at 3 µM [1] [%]	Ki [2] [nM]
CCOC(=O)C1CCC(N2CCc3cccc(c3)Oc3ccc4c(c3)CN(C(N)=N4)C(C(C)C)CCC2=O)CC1 (centres unmarked) [Compound 22]	25	48	83	750
NC1=Nc2cc(F)c3cc2CN1[C@H](C1CCCCC1)CCC(=O)N(C1CCCCC1)CCc1cccc(c1)O3 [Compound 17]	139	145	151	7.6
